Positions of bridges follow the written chain, without caps; N, C: chain ends. Non-standard residues stand in square brackets, D forms with d. Residues, ends and D or L forms follow the SMILES beside them. d(αMeF) = C[C@@](N)(Cc1ccccc1)C(=O)O; 3Pal = N[C@@H](Cc1cccnc1)C(=O)O; Cit = NC(=O)NCCC[C@H](N)C(=O)O; Nle = CCCC[C@H](N)C(=O)O; Aib = CC(C)(N)C(=O)O
Experiments:
Assay type in all cases: cell-based
human MC1R = biological target: T1, human MC1R (Homo sapiens, UniProt Q01726); test: split-luciferase cAMP sensor assay, agonist mode, hMC1R; conditions: MC4R versus MC1R
T1 construct: expressed in transfected cells; host or cells: HEK-293 cells stably expressing hMC1R and the GScAMP22F cAMP sensor
Procedure: FIG. 4A-B. (A) Pharmacological properties of exemplary MC4R agonist peptides, including those with improved efficacy in the MC4R+/− mouse (CTX-1211, CTX-1227, and CTX-1228). Concentration-response agonist curves for peptides indicated at the human MC4R (red), human MC3R (blue), human MC5R (green), and human MC1R (black) were determined by a split-luciferase cAMP sensor dynamic assay in HEK-293 cells stably expressing the hMC1R, hMC3R, hMC4R, or hMC5R and the GScAMP22F cAMP sensor. Each data point represents the mean±SEM of two experiments with three replicates each per experiment. Data is normalized to the ECmax of α-MSH. (B) Same as above, for peptides representing reduced activity at the hMC1R. Inset tables indicate EC50 values for the ligand indicated for each receptor.
The assay for the determination of the cAMP response in live cells was described previously. (Yu et al., 2020, Science 368, 428-433; incorporated by reference in its entirety). Cells were seeded at a density of 20,000 cells per well using 384-well poly-D lysine-coated, clear bottom, and black-wall assay plates (Corning Inc. Corning, NJ). Cells were allowed to attach to the plates for 18 to 24 h after which growth media was removed and 20 μl of 4% D-luciferin (Promega) in CO2 independent, serum-free medium (Thermo Fisher Scientific) was added to each well. The luciferase substrate was allowed to permeate the cells for 120 min at 37° C. Intracellular cAMP levels were measured using an FDSS 7000EX Functional Drug Screening System (Hamamatsu Photonics, Hamamatsu, Japan) in the Center for Chemical Genomics at the Life Sciences Institute. This instrument allowed the in-line addition of test-peptides and receptor agonists while simultaneously acquiring the luminescence signal from live cells. Assay read steps were set as follows: baseline acquisition of 2 min, the addition of 10 μl of varying 3× concentrations of test-peptides or vehicle followed by 11 min measurement (measurement window 1), and 10 μl addition of 4× concentration of the endogenous melanocortin agonist α-MSH (Bachem, Bubendorf, Switzerland) followed by an additional 11 min response measurement (measurement window 2). The resulting final concentration of α-MSH was close to the respective receptor EC90 dose for each receptor. Intraplate concentration response curves for α-MSH and SHU-9119 (Phoenix Pharmaceuticals, Burlingame CA) were included as reference controls. A submaximal forskolin (20 μM) concentration was also included to serve as a normalization reference to account for cell number variations and differences in assay transducer efficiency between cell lines.
With this set up it was possible to evaluate the direct effect of the test-peptides on the MC3R and MC4R cell lines during measurement window 1, while the antagonist profile in the presence of EC90 α-MSH was determined on measurement window 2. For data analysis baseline luminescence (i.e. the maximum luminescence signal from the initial 0 to 2 min window) was subtracted from the maximum luminescence obtained during measurement window 1 (2 to 13 min) and measurement window 2 (13 to 24 min) to yield the test-peptide elicited responses. EC50 or IC50 potency values were determined by non-linear regression by fitting the data to a sigmoid four-parameter variable slope model using the GraphPad Prism version 8.4 software package (San Diego CA).

human MC4R = biological target: T2, human MC4R (Homo sapiens, UniProt P32245); test: split-luciferase cAMP sensor assay, agonist mode (measurement window 1), hMC4R; conditions: agonist mode; for Emax: % maximal activation, read-out: MC4R cAMP % max activation; for EC50: HEK-293 cells stably expressing hMC4R, read-out: MC4R cAMP EC50
T2 construct: host or cells: HEK-293 cells stably expressing the GScAMP22F split-luciferase cAMP sensor and hMC4R, G418 selection
Summary of the method: (§1)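 EC50 values come from a four-parameter variable-slope fit of luminescence in measurement window 1, capturing direct peptide effects on receptor-expressing cells with a cAMP22f luciferase sensor. Cells were preloaded with 4% D-luciferin, serum-free medium; 20 μM forskolin normalized for cell number and transducer efficiency.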

human MC3R = biological target: T3, human MC3R (Homo sapiens, UniProt P41968); test: split-luciferase cAMP sensor assay, agonist mode (measurement window 1), hMC3R; conditions: for Emax: % maximal activation, read-out: MC3R cAMP % max activation; for Emax / EC50: agonist mode; for EC50: HEK-293 cells stably expressing hMC3R, read-out: MC3R cAMP EC50; for MC4R selectivity vs MC3R: MC4R versus MC3R
T3 construct: expressed in transfected cells; host or cells: HEK-293 cells stably expressing the GScAMP22F split-luciferase cAMP sensor (parent reporter line from Promega); MC3R clone generated in-house, G418 selection
Summary of the method: as §1

T1 sequence (Q01726 whole entry): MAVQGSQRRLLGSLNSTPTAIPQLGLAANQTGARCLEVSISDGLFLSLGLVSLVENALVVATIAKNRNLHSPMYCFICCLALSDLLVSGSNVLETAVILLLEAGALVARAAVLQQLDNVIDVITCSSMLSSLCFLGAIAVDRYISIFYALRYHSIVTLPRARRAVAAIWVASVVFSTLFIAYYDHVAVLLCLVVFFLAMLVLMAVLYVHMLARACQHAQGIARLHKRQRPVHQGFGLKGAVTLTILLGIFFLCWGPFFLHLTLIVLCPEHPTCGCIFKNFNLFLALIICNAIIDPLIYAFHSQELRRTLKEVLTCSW
T2 sequence (P32245 whole entry): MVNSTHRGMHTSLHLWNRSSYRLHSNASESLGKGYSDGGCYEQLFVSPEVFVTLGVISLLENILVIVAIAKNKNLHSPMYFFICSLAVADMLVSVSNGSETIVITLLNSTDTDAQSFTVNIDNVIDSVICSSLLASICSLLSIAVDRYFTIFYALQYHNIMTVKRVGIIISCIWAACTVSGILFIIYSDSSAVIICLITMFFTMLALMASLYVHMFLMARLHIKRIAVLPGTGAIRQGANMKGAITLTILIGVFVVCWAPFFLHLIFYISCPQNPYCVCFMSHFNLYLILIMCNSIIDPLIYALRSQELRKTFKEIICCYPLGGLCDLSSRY
T3 sequence (P41968 whole entry): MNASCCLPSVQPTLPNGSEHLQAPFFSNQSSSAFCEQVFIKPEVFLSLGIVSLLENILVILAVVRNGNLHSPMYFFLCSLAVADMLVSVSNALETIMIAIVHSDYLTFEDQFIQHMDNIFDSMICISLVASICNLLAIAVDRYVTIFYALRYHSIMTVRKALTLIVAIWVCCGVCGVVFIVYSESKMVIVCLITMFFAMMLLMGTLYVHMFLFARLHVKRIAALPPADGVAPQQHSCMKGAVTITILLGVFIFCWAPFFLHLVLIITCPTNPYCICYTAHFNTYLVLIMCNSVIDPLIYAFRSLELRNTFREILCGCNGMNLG

Compound	MC4R selectivity vs MC1R (human MC1R)	Emax (human MC4R) [%]	Emax (human MC3R) [%]	EC50 (human MC3R) [µM]	MC4R selectivity vs MC3R (human MC3R)	EC50 (human MC4R) [µM]
CC(=O)N[C@@H](CCCNC(=N)N)C(=O)N[C@H]1CSSC[C@@H](C(N)=O)NC(=O)[C@@H](Cc2c[nH]c3ccccc23)NC(=O)[C@H](CCCNC(=N)N)NC(=O)[C@@H](Cc2ccccc2)NC(=O)[C@H](CCCNC(N)=O)NC(=O)C(C)(C)NC1=O [CTX-1290, Arg-cyclo(Cys-Aib-Cit-D-Phe-Arg-D-Trp-Cys)] (Ac-RC[Aib][Cit][dF]R[dW]C-NH2; disulfide 2-8)	10	88	20	1.03	9.23	–
CC(=O)N[C@H]1CSSC[C@@H](C(N)=O)NC(=O)[C@H](Cc2c[nH]c3ccccc23)NC(=O)[C@H](CCCNC(=N)N)NC(=O)[C@@H](Cc2ccccc2)NC(=O)[C@H](CCCNC(N)=O)NC(=O)CNC1=O [CTX-1630, cyclo(Cys-Gly-Cit-D-Phe-Arg-Trp-Cys)] (Ac-CG[Cit][dF]RWC-NH2; disulfide 1-7 (inferred))	1816	102	35	–	28	–
CCCC[C@H](NC(=O)[C@H](CCCNC(=N)N)NC(C)=O)C(=O)N[C@H]1CSSC[C@@H](C(N)=O)NC(=O)[C@H](Cc2c[nH]c3ccccc23)NC(=O)[C@H](CCCNC(=N)N)NC(=O)[C@H](Cc2ccccc2)NC(=O)[C@H](CCCNC(N)=O)NC1=O [CTX-1609, Arg-Nle-cyclo(Cys-Cit-Phe-Arg-Trp-Cys)] (Ac-R[Nle]C[Cit]FRWC-NH2; disulfide 3-8 (inferred))	4.15	96	65	–	4.72	–
CC(=O)N[C@@H](CCCNC(=N)N)C(=O)N[C@H]1CSSC[C@@H](C(N)=O)NC(=O)[C@H](Cc2c[nH]c3ccccc23)NC(=O)[C@H](CCCNC(=N)N)NC(=O)[C@@](C)(Cc2ccccc2)NC(=O)[C@H](CCCNC(=N)N)NC(=O)[C@@H](C)NC1=O [CTX-1278] (Ac-RC[dA]R[d(αMeF)]RWC-NH2; disulfide 2-8 (inferred))	1.13	105	86	–	12	–
CCCC[C@H](NC(=O)[C@H](CCCNC(=N)N)NC(C)=O)C(=O)N[C@H]1CSSC[C@@H](C(N)=O)NC(=O)[C@H](Cc2ccccc2)NC(=O)[C@H](CCCNC(=N)N)NC(=O)[C@@H](Cc2ccccc2)NC(=O)[C@H](CCCNC(=N)N)NC1=O [CTX-1622, Arg-Nle-cyclo(Cys-Arg-D-Phe-Arg-Phe-Cys)] (Ac-R[Nle]CR[dF]RFC-NH2; disulfide 3-8 (inferred))	0.39	101	100	0.013	0.32	–
CCCC[C@H](NC(=O)[C@H](CCCNC(=N)N)NC(C)=O)C(=O)N[C@H]1CSSC[C@@H](C(N)=O)NC(=O)[C@H](Cc2c[nH]c3ccccc23)NC(=O)[C@H](CCCNC(=N)N)NC(=O)[C@@H](Cc2ccccc2)NC(=O)[C@H](Cc2cccnc2)NC1=O [CTX-1620, Arg-Nle-cyclo(Cys-Pal(3′)-D-Phe-Arg-Trp-Cys)] (Ac-R[Nle]C[3Pal][dF]RWC-NH2; disulfide 3-8 (inferred))	47	91	39	–	12	–
CC(=O)N[C@@H](CCCNC(=N)N)C(=O)N[C@H]1CSSC[C@@H](C(N)=O)NC(=O)[C@H](Cc2ccccc2)NC(=O)[C@H](CCCNC(=N)N)NC(=O)[C@@H](Cc2ccccc2)NC(=O)[C@H](CCCNC(=N)N)NC(=O)C(C)(C)NC1=O [CTX-1601, Arg-cyclo(Cys-Aib-Arg-D-Phe-Arg-Phe-Cys)] (Ac-RC[Aib]R[dF]RFC-NH2; disulfide 2-8)	0.93	97	73	–	2.3	–
N=C(N)NCCC[C@@H]1NC(=O)[C@@H](Cc2ccccc2)NC(=O)[C@H](CCCNC(N)=O)NC(=O)CNC(=O)CSC[C@@H](C(N)=O)NC(=O)[C@H](Cc2c[nH]c3ccccc23)NC1=O [CTX-1646, Thioether-cyclo(Gly-Cit-D-Phe-Arg-Trp-Cys)] ({CH2CO}-G[Cit][dF]RWC-NH2; thioether N-6)	>770	103	70	–	193	0.013
CC(=O)N[C@@H](CCCNC(=N)N)C(=O)N[C@H]1CSSC[C@@H](C(N)=O)NC(=O)[C@@H](Cc2c[nH]c3ccccc23)NC(=O)[C@H](CCCNC(=N)N)NC(=O)[C@@H](Cc2ccccc2)NC(=O)[C@H](Cc2c[nH]cn2)NC(=O)C(C)(C)NC1=O [CTX-1296, Arg-cyclo(Cys-Aib-His-D-Phe-Arg-D-Trp-Cys)]	11	99	93	0.01	22	–
CC(=O)N[C@@H](CCCNC(=N)N)C(=O)N[C@H]1CSSC[C@@H](C(N)=O)NC(=O)[C@H](Cc2c[nH]c3ccccc23)NC(=O)[C@H](CCCNC(=N)N)NC(=O)[C@@H](Cc2ccccc2)NC(=O)[C@H](CCCNC(=N)N)NC(=O)C(C)(C)NC1=O [CTX-1292, Arg-cyclo(Cys-Aib-Arg-D-Phe-Arg-Trp-Cys)] (Ac-RC[Aib]R[dF]RWC-NH2; disulfide 2-8 (inferred))	2.46	90	76	–	21	–
N=C(N)NCCC[C@@H]1NC(=O)[C@@H](Cc2ccccc2)NC(=O)[C@H](CCCNC(N)=O)NC(=O)CNC(=O)CSC[C@@H](C(N)=O)NC(=O)[C@H](Cc2ccccc2)NC1=O [CTX-1655, Thioether-cyclo(Gly-Cit-D-Phe-Arg-Phe-Cys)] ({CH2CO}-G[Cit][dF]RFC-NH2; thioether N-6)	Not active	–	–	> 10	Not active	> 10
CC(=O)N[C@H]1CSSC[C@@H](C(N)=O)NC(=O)[C@H](Cc2c[nH]c3ccccc23)NC(=O)[C@H](CCCNC(=N)N)NC(=O)[C@@H](Cc2ccccc2)NC(=O)[C@H](CCCNC(=N)N)NC(=O)C(C)(C)NC1=O [CTX-1632, cyclo(Cys-Aib-Arg-D-Phe-Arg-Trp-Cys)] (Ac-C[Aib]R[dF]RWC-NH2; disulfide 1-7)	3.18	105	77	–	36	–
CC(=O)N[C@@H](CCCNC(=N)N)C(=O)N[C@H]1CSSC[C@@H](C(N)=O)NC(=O)[C@H](Cc2c[nH]c3ccccc23)NC(=O)[C@H](CCCNC(N)=O)NC(=O)[C@@H](Cc2ccccc2)NC(=O)[C@H](CCCNC(=N)N)NC(=O)C(C)(C)NC1=O [CTX-1270, Arg-cyclo(Cys-Aib-Arg-D-Phe-Cit-Trp-Cys)] (Ac-RC[Aib]R[dF][Cit]WC-NH2; disulfide 2-8)	2.49	98	14	0.052	1.88	–
CC1(C)NC(=O)CSC[C@@H](C(N)=O)NC(=O)[C@H](Cc2ccccc2)NC(=O)[C@H](CCCNC(=N)N)NC(=O)[C@@H](Cc2ccccc2)NC(=O)[C@H](Cc2c[nH]cn2)NC1=O [CTX-1650, Thioether-cyclo(Aib-His-D-Phe-Arg-Phe-Cys)] ({CH2CO}-[Aib]H[dF]RFC-NH2; thioether N-6)	0.95	113	125	–	53	0.288

— patent publication US20240391954A1, “MC4R AGONIST PEPTIDES” (The Regents of the University of Michigan, priority 2021, published 2024)
